Experimental data: patent publication US12083109B2, “Neurokinin antagonists and uses thereof” (California Institute of Technology, priority 2017, dated 2024)
“Also recorded” adds a separate entry of the source.

Target: T1, Nk3R (Mus musculus, UniProt P47937)
T1 sequence (P47937 1-452): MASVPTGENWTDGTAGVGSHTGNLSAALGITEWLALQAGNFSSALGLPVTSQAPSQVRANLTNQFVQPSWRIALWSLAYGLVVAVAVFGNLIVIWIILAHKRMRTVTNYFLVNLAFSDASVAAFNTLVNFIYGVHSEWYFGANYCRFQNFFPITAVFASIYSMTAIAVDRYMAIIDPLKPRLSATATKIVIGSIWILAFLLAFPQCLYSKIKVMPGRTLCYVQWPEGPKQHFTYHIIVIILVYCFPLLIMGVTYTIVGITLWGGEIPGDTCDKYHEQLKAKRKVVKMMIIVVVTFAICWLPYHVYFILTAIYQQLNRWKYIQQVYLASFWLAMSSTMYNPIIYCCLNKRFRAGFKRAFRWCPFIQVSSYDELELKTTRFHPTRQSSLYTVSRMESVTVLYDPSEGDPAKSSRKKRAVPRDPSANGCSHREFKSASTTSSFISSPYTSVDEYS
Assay: Shock reactivity (footshock) after tone test, osanetant
Type: in vivo
Parameters: from tissue; host or cells: Living mice (wild-type C57Bl6/N males, Charles River)
Description: The protocol for tone trace fear conditioning was performed as previously described (Cushman et al., 2014; incorporated by reference in its entirety) using fear conditioning boxes previously described in detail (Haubensak et al., 2010; Kunwar et al., 2015; incorporated by reference in their entirety). Briefly, mice were transported in squads of four on a white cart to a novel behavioral testing room containing 4 sound-attenuating fear-conditioning chambers (Med Associates). This “training context” was comprised of flat grid flooring (wired to a shock generator and scrambler for footshock delivery, Med Associates), houselights, and the presence of an internal fan for background noise. Chambers were sprayed with 70% Simple Green solution on the underlying chamber pan to generate a unique contextual scent and chambers were cleaned with 70% EtOH between squads. Trace fear conditioning consisted of a 3 minute baseline period followed by 3 tone-shock trials consisting of a 20 second tone conditional stimulus (CS; 75 dB, 2800 Hz), a 20 second trace interval and a 2 second footshock unconditional stimulus (US; 0.7 mA). The inter-trial interval (ITI) between trials was 60 seconds. Mice remained in the chambers an additional 60 seconds before being transported back to the vivarium. The following day, mice were transported in fresh cardboard boxes to a novel behavioral testing room consisting of 4 distinct fear-conditioning boxes to test for tone fear. The “test context” consisted of the houselights and fan turned off, uneven grid flooring, a 1% acetic acid scent and a black plastic insert used to generate a triangular roof. Testing was performed identical to training with the exception that shocks were omitted from test trials to allow for behavior assessment to the tone. A single shock was administered in the last minute of testing to assess activity burst responding to the shock. This allowed assessment of reactivity to the shock under our various manipulations performed during testing without disrupting fear acquisition by performing manipulations during training. All experimental manipulations and data shown herein were performed during the test phase of fear conditioning (training data not shown). Training and testing context were counterbalanced across mice. Freezing behavior during the baseline period as well as during each tone presentation (“during”) and trace interval (“post”) were assessed as previously described (Zelikowsky et al., 2014; incorporated by reference in its entirety) using automated near-infrared video tracking equipment and computer software (VideoFreeze, Med Associates). Shock reactivity (motion, arbitrary units) was measured during the 2 second shock US as well as the 3 seconds immediately following.
Mice were administered the Nk3R antagonist osanetant (Axon Medchem, Axon 1533) either systemically or intra-brain region. Osanctant was dissolved in saline with 0.1% Tween 20 (vehicle). […] For microinfusions, guide cannulas were removed from mice and replaced with injector cannulas (Plastics One), which protruded 0.5 mm from the tip of the guide cannula. Injectors were attached to 5 μl Hamilton syringes with PE tubing (Plastics One) and mounted on a microinfusion pump (Harvard Apparatus) for controlled infusion of osanetant (0.3 μl vehicle with 375 ng dose per site injected over 6 minutes). […]

SIS-induced increased shock reactivity (SIS mice, osanetant 5 mg/kg i.p. 20 min before test): blocked
reactivity to footshock (SIS-enhanced) (osanetant injection into CeA): reduced; also recorded: blocked
responses to the footshock (osanetant microinfusion into DMH): had no effect
shock reactivity (osanetant microinfusion into dBNSTa): no effect
SMILES: CC(=O)N(C)C1(c2ccccc2)CCN(CCC[C@]2(c3ccc(Cl)c(Cl)c3)CCCN(C(=O)c3ccccc3)C2)CC1 [osanetant, N-(1-{3-[(3R)-1-benzoyl-3-(3,4-dichlorophenyl)piperidin-3-yl]propyl}-4-phenylpiperidin-4-yl)-N-methylacetamide]
SIS-induced increase in shock reactivity (osanetant daily during two-week isolation, tested off-drug): a trend to protection; also recorded: reduced, but not significantly
